Source: the NIST ThermoML archive (doi:10.1021/je060210c)
± gives the expanded uncertainty stated by the source.

Legend:
[1] = excess molar enthalpy (molar enthalpy of mixing); xn = mol fraction of the nth substance listed; conditions: 101 kPa, Liquid
[2] = xn = mol fraction of the nth substance listed; conditions: 101 kPa, Liquid; for speed of sound: Sing-around technique in a fixed-path interferometer

C=C1CCC2CC1C2(C)C (stereo not drawn) [β-pinene] + CCCC(C)O
Conditions | excess molar enthalpy [kcal/mol] | mass density [kg/m3] | speed of sound [m/s]
[1], 283.15 K, x1 = 0.049 | 0.0299 ± 0.0012 | – | –
[1], 283.15 K, x1 = 0.1 | 0.0631 ± 0.00167 | – | –
[1], 283.15 K, x1 = 0.193 | 0.117 ± 0.00215 | – | –
[1], 283.15 K, x1 = 0.294 | 0.163 ± 0.00287 | – | –
[1], 283.15 K, x1 = 0.395 | 0.194 ± 0.00335 | – | –
[1], 283.15 K, x1 = 0.495 | 0.21 ± 0.00359 | – | –
[1], 283.15 K, x1 = 0.591 | 0.21 ± 0.00359 | – | –
[1], 283.15 K, x1 = 0.695 | 0.194 ± 0.00335 | – | –
[1], 283.15 K, x1 = 0.794 | 0.168 ± 0.00287 | – | –
[1], 283.15 K, x1 = 0.9 | 0.123 ± 0.00239 | – | –
[1], 283.15 K, x1 = 0.942 | 0.092 ± 0.00191 | – | –
[1], 283.15 K, x1 = 0.971 | 0.066 ± 0.00167 | – | –
[1], 283.15 K, x1 = 0.985 | 0.0356 ± 0.00143 | – | –
[1], 298.15 K, x1 = 0.049 | 0.0382 ± 0.00143 | – | –
[1], 298.15 K, x1 = 0.1 | 0.0803 ± 0.00167 | – | –
[1], 298.15 K, x1 = 0.193 | 0.149 ± 0.00263 | – | –
[1], 298.15 K, x1 = 0.294 | 0.206 ± 0.00359 | – | –
[1], 298.15 K, x1 = 0.395 | 0.243 ± 0.00406 | – | –
[1], 298.15 K, x1 = 0.495 | 0.263 ± 0.00454 | – | –
[1], 298.15 K, x1 = 0.591 | 0.263 ± 0.00454 | – | –
[1], 298.15 K, x1 = 0.695 | 0.253 ± 0.0043 | – | –
[1], 298.15 K, x1 = 0.794 | 0.224 ± 0.00382 | – | –
[1], 298.15 K, x1 = 0.9 | 0.172 ± 0.00311 | – | –
[1], 298.15 K, x1 = 0.942 | 0.124 ± 0.00239 | – | –
[1], 298.15 K, x1 = 0.971 | 0.0875 ± 0.00191 | – | –
[1], 298.15 K, x1 = 0.985 | 0.0452 ± 0.00143 | – | –
[1], 313.15 K, x1 = 0.049 | 0.05 ± 0.00143 | – | –
[1], 313.15 K, x1 = 0.1 | 0.0987 ± 0.00191 | – | –
[1], 313.15 K, x1 = 0.193 | 0.179 ± 0.00311 | – | –
[1], 313.15 K, x1 = 0.294 | 0.245 ± 0.00406 | – | –
[1], 313.15 K, x1 = 0.395 | 0.289 ± 0.00478 | – | –
[1], 313.15 K, x1 = 0.495 | 0.315 ± 0.00526 | – | –
[1], 313.15 K, x1 = 0.591 | 0.321 ± 0.00526 | – | –
[1], 313.15 K, x1 = 0.695 | 0.313 ± 0.00526 | – | –
[1], 313.15 K, x1 = 0.794 | 0.286 ± 0.00478 | – | –
[1], 313.15 K, x1 = 0.9 | 0.21 ± 0.00359 | – | –
[1], 313.15 K, x1 = 0.942 | 0.153 ± 0.00287 | – | –
[1], 313.15 K, x1 = 0.971 | 0.0968 ± 0.00191 | – | –
[1], 313.15 K, x1 = 0.985 | 0.0442 ± 0.00167 | – | –
[2], 283.15 K, x1 = 0.104 | – | 824.99 ± 0.82 | 1291.4 ± 2
[2], 283.15 K, x1 = 0.2047 | – | 832.2 ± 0.79 | 1295.3 ± 1.9
[2], 283.15 K, x1 = 0.3071 | – | 839.03 ± 0.75 | 1299.3 ± 1.9
[2], 283.15 K, x1 = 0.3997 | – | 844.95 ± 0.71 | 1303.5 ± 1.8
[2], 283.15 K, x1 = 0.4964 | – | 850.86 ± 0.67 | 1308.8 ± 1.7
[2], 283.15 K, x1 = 0.6058 | – | 857.28 ± 0.63 | 1316.2 ± 1.6
[2], 283.15 K, x1 = 0.6929 | – | 862.26 ± 0.6 | 1323.1 ± 1.5
[2], 283.15 K, x1 = 0.8016 | – | 868.23 ± 0.55 | 1332.7 ± 1.4
[2], 283.15 K, x1 = 0.904 | – | 873.67 ± 0.51 | 1342.4 ± 1.3
[2], 283.15 K, x1 = 0.9454 | – | 875.83 ± 0.49 | 1346.8 ± 1.3
[2], 298.15 K, x1 = 0.1056 | – | 812.89 ± 0.81 | 1235 ± 2
[2], 298.15 K, x1 = 0.2051 | – | 819.88 ± 0.78 | 1238.6 ± 1.9
[2], 298.15 K, x1 = 0.3052 | – | 826.49 ± 0.74 | 1241.5 ± 1.9
[2], 298.15 K, x1 = 0.4038 | – | 832.72 ± 0.7 | 1245.8 ± 1.8
[2], 298.15 K, x1 = 0.5068 | – | 838.99 ± 0.66 | 1251.5 ± 1.7
[2], 298.15 K, x1 = 0.601 | – | 844.56 ± 0.63 | 1257.8 ± 1.6
[2], 298.15 K, x1 = 0.695 | – | 849.94 ± 0.59 | 1265 ± 1.5
[2], 298.15 K, x1 = 0.8014 | – | 855.84 ± 0.55 | 1273.7 ± 1.4
[2], 298.15 K, x1 = 0.9001 | – | 861.15 ± 0.51 | 1282.7 ± 1.3
[2], 298.15 K, x1 = 0.9499 | – | 863.9 ± 0.49 | 1288.2 ± 1.3
[2], 313.15 K, x1 = 0.1069 | – | 800.02 ± 0.8 | 1170.1 ± 2
[2], 313.15 K, x1 = 0.1981 | – | 806.39 ± 0.77 | 1173.2 ± 2
[2], 313.15 K, x1 = 0.3039 | – | 813.43 ± 0.73 | 1177.7 ± 1.9
[2], 313.15 K, x1 = 0.4034 | – | 819.78 ± 0.7 | 1182.2 ± 1.8
[2], 313.15 K, x1 = 0.5067 | – | 826.14 ± 0.66 | 1188.2 ± 1.7
[2], 313.15 K, x1 = 0.6023 | – | 831.84 ± 0.62 | 1195.1 ± 1.6
[2], 313.15 K, x1 = 0.7005 | – | 837.55 ± 0.58 | 1203.4 ± 1.5
[2], 313.15 K, x1 = 0.7975 | – | 843.07 ± 0.55 | 1212.8 ± 1.4
[2], 313.15 K, x1 = 0.8956 | – | – | 1223.2 ± 1.3
[2], 313.15 K, x1 = 0.8957 | – | 848.53 ± 0.51 | –
[2], 313.15 K, x1 = 0.9497 | – | 851.6 ± 0.49 | 1229.6 ± 1.3
